Legend:
Test in all cases: relative viability (nuclei count vs DMSO), 5 days (fraction); higher = more cells survive
[1] = compound: CCN(CC)CCNC(=O)c1c(C)[nH]c(/C=C2\C(=O)Nc3ccc(F)cc32)c1C [Sunitinib] + C[C@]1(O)C[C@@H](c2nc(-c3ccc4ccc(-c5ccccc5)nc4c3)c3c(N)nccn32)C1 [Linsitinib] (partner 1 µM)
Summary of the method: (§1)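 Medians of duplicate plates are given as relative viability. That measure is the nuclei count in treated wells divided by the count in vehicle wells. Counts were taken on 4× images of lung cancer cell lines in 1536-well plates, 5 days after pin-tool dosing the day after seeding with one drug alone or a fixed anchor-drug dose plus five library-drug doses (not always all listed) in √10 steps.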

[2] = compound: CCN(CC)CCNC(=O)c1c(C)[nH]c(/C=C2\C(=O)Nc3ccc(F)cc32)c1C [Sunitinib] + COc1cccc2cc(-c3nc([C@H]4CC[C@H](C(=O)O)CC4)n4ncnc(N)c34)[nH]c12 [OSI-027] (partner 0.5 µM)
Summary of the method: as §1

[3] = compound: CCN(CC)CCNC(=O)c1c(C)[nH]c(/C=C2\C(=O)Nc3ccc(F)cc32)c1C [Sunitinib] + CC(=O)Nc1cccc(-n2c(=O)n(C3CC3)c(=O)c3c(Nc4ccc(I)cc4F)n(C)c(=O)c(C)c32)c1 [Trametinib] (partner 0.02 µM)
Summary of the method: as §1

[4] = compound: CCN(CC)CCNC(=O)c1c(C)[nH]c(/C=C2\C(=O)Nc3ccc(F)cc32)c1C [Sunitinib] + CS(=O)(=O)CCNCc1ccc(-c2ccc3ncnc(Nc4ccc(OCc5cccc(F)c5)c(Cl)c4)c3c2)o1 [Lapatinib] (partner 2 µM)
Summary of the method: as §1

Row | Cell Line | relative viability ([1]; first compound 0.02 µM) | relative viability ([1]; first compound 0.06325 µM) | relative viability ([1]; first compound 0.2 µM) | relative viability ([1]; first compound 0.6325 µM) | relative viability ([1]; first compound 2 µM) | relative viability ([2]; first compound 0.02 µM) | relative viability ([2]; first compound 0.06325 µM) | relative viability ([2]; first compound 0.2 µM) | relative viability ([2]; first compound 0.6325 µM) | relative viability ([2]; first compound 2 µM) | relative viability ([3]; first compound 0.02 µM) | relative viability ([3]; first compound 0.06325 µM) | relative viability ([3]; first compound 0.2 µM) | relative viability ([3]; first compound 0.6325 µM) | relative viability ([3]; first compound 2 µM) | relative viability ([4]; first compound 0.02 µM) | relative viability ([4]; first compound 0.06325 µM) | relative viability ([4]; first compound 0.2 µM) | relative viability ([4]; first compound 0.6325 µM) | relative viability ([4]; first compound 2 µM)
1 | NCI-H1355 | 0.759 | 0.859 | 0.874 | 0.829 | 0.813 | 0.431 | 0.455 | 0.441 | 0.437 | 0.365 | 0.44 | 0.438 | 0.567 | 0.437 | 0.376 | 1.01 | 1.04 | 1.12 | 1.07 | 1.06
2 | NCI-H1395 | 0.975 | 1.2 | 1.37 | 1.19 |  | 0.648 | 0.701 | 0.632 | 0.739 | 0.697 | 0.92 |  | 1.22 | 0.988 | 0.99 | 0.947 | 1.17 | 1.07 | 1.16 | 1
3 | NCI-H1437 | 0.975 | 1 | 1.2 |  | 1.02 | 0.873 | 0.918 |  | 0.855 | 0.885 | 0.478 | 0.539 | 0.611 | 0.607 | 0.537 | 0.789 | 1.1 | 0.928 | 0.793 | 1.03
4 | NCI-H1651 | 0.882 | 1.07 | 1.09 | 0.998 | 0.96 | 0.57 |  | 0.73 | 0.534 | 0.714 | 0.801 |  | 0.901 |  | 0.847 | 0.766 | 1.21 | 1.06 | 0.893 | 0.923
5 | NCI-H1666 | 0.701 | 0.815 | 0.971 | 0.827 |  | 0.835 | 0.877 | 0.924 | 0.924 | 0.822 | 0.843 | 0.888 | 1.09 | 0.879 | 0.882 |  | 0.9 | 0.584 | 0.719 | 0.671
6 | NCI-H1734 | 0.844 | 0.95 | 0.936 | 0.944 | 0.756 | 0.613 | 0.683 | 0.7 | 0.608 | 0.511 | 0.595 | 0.665 | 0.747 | 0.653 | 0.644 | 0.968 | 1.16 | 1.35 | 1.18 | 1.05
7 | NCI-H1755 | 0.996 | 0.98 |  | 0.979 | 0.941 | 0.745 | 0.821 | 0.743 | 0.748 | 0.761 | 0.763 | 0.768 | 0.92 | 0.736 | 0.767 | 1.04 | 1.08 | 1.09 | 1.07 | 1.02
8 | NCI-H1792 | 0.556 | 0.479 | 0.419 | 0.511 | 0.561 | 0.667 | 0.716 | 0.829 | 0.691 | 0.481 | 0.463 | 0.417 | 0.533 | 0.442 | 0.377 | 0.885 | 0.952 | 1.07 | 0.809 | 0.923
9 | NCI-H1793 |  | 0.856 | 1.08 | 0.838 | 0.93 | 0.278 | 0.245 | 0.252 | 0.274 | 0.194 |  | 0.364 | 0.377 | 0.514 | 0.331 |  | 0.675 | 0.828 | 0.651 | 0.484
10 | NCI-H1915 | 1.08 | 1.15 | 1.14 | 1.09 | 1.11 | 0.605 | 0.645 | 0.71 | 0.612 | 0.618 | 0.291 | 0.291 | 0.304 | 0.298 | 0.261 | 0.958 | 1.03 | 1.04 | 0.998 | 1.02
11 | NCI-H1944 | 1.12 | 1.18 | 1.28 | 1.25 | 1.16 | 0.365 | 0.437 | 0.514 | 0.513 | 0.409 | 0.401 | 0.423 | 0.457 | 0.437 | 0.43 | 0.648 | 0.932 | 0.997 | 0.849 | 0.964
12 | NCI-H1975 |  | 0.969 | 1.01 | 0.986 | 0.868 | 0.62 | 0.826 | 0.805 | 0.633 | 0.498 | 0.322 | 0.361 | 0.33 | 0.421 | 0.316 | 0.815 | 1.1 | 1.14 | 0.981 | 0.763
13 | NCI-H1993 | 0.711 | 0.744 |  | 0.8 | 0.664 | 0.598 | 0.482 | 0.551 | 0.568 | 0.554 | 0.51 | 0.53 | 0.448 | 0.424 | 0.651 | 0.835 | 0.889 | 0.834 | 0.836 | 0.849
14 | NCI-H2009 | 1.2 | 1.18 | 1.2 | 1.31 | 1.27 | 0.578 | 0.772 | 0.704 | 0.771 | 0.666 | 0.242 | 0.332 | 0.274 | 0.25 | 0.181 | 0.929 | 1.34 | 0.995 |  | 1.18
15 | NCI-H2023 | 0.709 | 0.594 | 0.754 | 0.788 | 0.582 | 0.341 | 0.437 | 0.399 | 0.398 | 0.289 | 0.425 | 0.615 | 0.614 | 0.454 | 0.444 | 0.912 | 1.09 | 0.998 | 0.814 | 0.91
16 | NCI-H2085 |  | 0.923 | 0.939 | 0.945 | 1.02 | 0.761 | 0.768 | 0.73 | 0.96 | 1.06 | 0.5 | 0.515 | 0.515 | 0.634 | 0.71 | 0.759 | 0.814 | 0.791 | 0.856 | 0.839
17 | NCI-H2087 |  | 1.01 | 0.938 |  | 0.889 | 0.423 | 0.755 | 0.636 | 0.577 | 0.449 | 0.2 | 0.234 | 0.266 | 0.211 | 0.237 |  | 1.11 | 1.01 | 1.26 | 1.03

Reference: the supplement of paper PMC10307832
